The values below are quoted from earlier work in patent publication US20250163027A1, “GPR88-RECEPTOR-AGONIST” (Boehringer Ingelheim International GmbH, priority 2023, published 2025).

As a reminder, the EC50 is the midpoint of the concentration-response curve.

The target in this data set is hGPR88 receptor (Homo sapiens, UniProt Q9GZN0). To be noted: value marked * : cAMP assay, not BRET. A general note: Cyclic AMP is a second messenger, typically raised through Gs and lowered through Gi signalling.
Chain of hGPR88 receptor (Q9GZN0 whole entry): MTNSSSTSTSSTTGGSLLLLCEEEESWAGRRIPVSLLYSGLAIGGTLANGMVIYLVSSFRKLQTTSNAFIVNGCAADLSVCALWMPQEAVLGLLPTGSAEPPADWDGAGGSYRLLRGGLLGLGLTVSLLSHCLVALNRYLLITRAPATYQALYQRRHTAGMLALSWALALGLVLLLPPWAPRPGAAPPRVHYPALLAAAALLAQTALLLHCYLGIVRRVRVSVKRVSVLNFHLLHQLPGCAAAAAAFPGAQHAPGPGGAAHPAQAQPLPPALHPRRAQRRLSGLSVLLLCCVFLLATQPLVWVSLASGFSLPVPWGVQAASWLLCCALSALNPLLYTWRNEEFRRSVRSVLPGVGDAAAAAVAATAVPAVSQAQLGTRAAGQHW

For `COCc1ccc(-c2ccc(N(CC(C)(C)O)C(=O)C3CC3c3ccccn3)cc2)cc1` (stereo not shown) [Ex 141 in WO2022/129933], the EC50 was > 5 µM.
